Data set [1] deals with B16 mouse melanoma. Kind of data set: B16 mouse melanoma tumor growth (tumor volume by calipers). The data set is classed as in vivo. To be noted: for Tumor volumes; Day 8 after tumor transplantation: local cream 150 mg per application on days 8, 11, 13, 15, 18, 20, day 8 = start, mean of 5 animals. The text has this: The B16 mouse melanoma tumors were developed in first generation hybrid BDF1 (C57 B1 female×DBA/2 male) adult female mice kept at specified pathogen free (SPF) hygienic level. These mice have the complete immune system. The human H-168 melanoma tumors were developed in the homozygous line of C.B.-171 cr scid/scid mice (with severely compromised immune deficiency) which is an inbred mutant strain. In each case, tumor tissue fragments of about 0.1-cm^3 were surgically implanted subcutaneously into the intrascapular region to develop the tumors. Each tumor fragment contained 1-1.5×10^6 cells. The animals were kept in macrolon cages on ventilated rack at 22-24° C. (50-60% humidity) with lighting regimen of 12/12 h light/dark. The animals had free access to tap water and were fed with sterilized standard diet (Charles River VRF1, Germany) ad libitum. The animals were taken care of according to the “Guiding Principle for the care and use of Animals” based upon the Helsinki declaration and they were approved by the local ethical committee.
The mice bearing the rapidly growing B16 melanoma tumors were used after 8-11 days of tumor transplantation, while mice bearing the slower growing H-168 melanoma were used after 17 days of transplantation. In either case, when the tumor-bearing mice were used, the size of the tumors was in the 0.3-0.6 cm^3 range; animals were selected so that in the same treatment group the difference in tumor size was no greater than 0.1 cm^3 PALP, TF, or AT were used topically in a cream alone or in combination; in each case, 150-mg cream was applied on the tumor and the vicinity of tumor area (with about 0.3-0.5 cm margin). The tumor volume was determined by using calipers; this technique is well known to one having ordinary skill in the art. Tumor volume was calculated according to the generally accepted formula: V=a^2×b×π/6, where “a” and “b” mean the shortest and longest diameter, respectively, of the measured tumor.
The aggressive B16 mouse melanoma model was developed as described under Example 3. On day 11 after transplantation of tumor cells, the animals were either remained untreated (Group 1) or were treated with 15 mg/kg highly purified PALP via subcutaneous administration (Group 2). In Group 3, the tumors were treated locally with 150-mg of cream containing 4 mg commercial PALP in 1 g of Vaselinum cholesteratum. In Group 4, the animals were treated simultaneously locally with commercial PALP containing cream and via subcutaneous injection with highly purified PALP. Each treatment was performed once daily for seven consecutive days (i.e., treatments were terminated on day 18). Locally administered PALP preparation, and to a somewhat smaller extent injected purified PALP, inhibited the growth of B16 melanoma. The inhibitory effects remained significant even on day 23, 5 days after the last treatment. When PALP preparations were simultaneously administered via both routes, the combined effects were greater than the individual effects. […] Alternatively, optimal effects could require the presence of all 3 proteins. Experiments presented later confirm that the inhibitory effects of purified PALP on melanoma growth are greater in the simultaneous presence of TF and AT.
The B16 mouse melanoma model was developed as described under Example 3. On day 8 after transplantation of tumor cells, the animals either remained untreated (Group 1) or in other animal groups the tumors were treated locally with creams (150 mg per application) containing active components as follows: Group 2, 0.4 mg of purified PALP per 1-g Vaseline; Group 3, 0.5 mg of purified partially iron-saturated TF per 1-g Vaseline; Group 4, 0.4 mg of PALP+0.5 mg TF per 1-g Vaseline; Group 5, 1.2 mg of purified AT per 1-g Vaseline; Group 6, 0.4 mg of PALP+0.5 mg TF+1.2 mg of purified AT per 1-g Vaseline; and Group 7, Vaselinum cholesteratum alone. Each treatment was performed once daily on days 8, 11, 13, 15, 18 and 20. […]

Data set [2] deals with B16 mouse melanoma. The data set is described as above. It counts as in vivo. To be noted: subcutaneous injection.
The subject of data set [3] is B16 melanoma. Nature of the data set: Lung metastasis of B16 melanoma (macroscopic lung colonies). It counts as in vivo, mouse. To be noted: treatments from day 11, daily, counted 21 days after starting the treatments, 7 animals, parentheses = smallest and highest numbers in the group. On the procedure: B16 melanoma cells are highly metastatic that are known to preferably form metastatic colonies in the lung. The goal of this experiment was to determine if any of the components present in commercial PALP or the mode of application affect the metastatic process.
The B16 melanoma model described under Example 3 was used. The treatments of mice bearing the rapidly growing B16 melanoma were started 11 days after tumor transplantation; additional treatments were performed on each day for six consecutive days. In each experimental group seven animals were used. In the first group, animal tumors were treated locally with 200 mg Vaseline (control group). In the second group, animal tumors were locally treated with 200 mg Vaseline cream containing 4 mg commercial PALP per 1-g Vaseline. In the third group, animals were subcutaneously injected commercial PALP (1.5 mg per animal or 60 mg per kg). In the fourth group, animals were treated with commercial PALP both locally and subcutaneously. In the fifth group, animals were subcutaneously injected highly purified PALP (0.35 mg per animal or 14 mg per 1 kg). In the sixth group, animals were subcutaneously injected partially iron-saturated human TF (0.4 mg per animal or 16 mg per 1 kg). In the seventh group, animal tumors were locally treated with 200 mg Vaseline cream containing 1.0 mg human TF per 1 g Vaseline. In the last group, the tumors were untreated during the entire period of experiment. The macroscopic colonies were counted in the lung (7 animals in each group) 21 days after starting the treatments. The data are presented in TABLE 5; numbers in the parentheses indicate the smallest and highest numbers of metastatic lung colonies in the same group.

In data set [4] the test system is fibroblast. Nature of the data set: Fibroblast proliferation in vitro after pre-heating of TF. The data set is classed as cell-based. To be noted: pre-heating at up to 75° C. for 30 min. On the procedure: The stimulatory effects of TF on fibroblast proliferation in vitro are not altered by pre-heating it at up to 75° C. for 30 min. Thus, pre-heating of TF-containing compositions to enhance the effects of other components, such as PALP and AT will be unlikely to alter other effects of TF such as inhibition of melanoma growth.

Data set [5] in a line: Organ pathology in mice after repeated injection. It counts as in vivo. To be noted: 16 mg/kg injected 15-times over a 3 weeks period.
Where [6] appears, read: subcutaneous injection, CCDTHT 4.6 mg/kg once daily day 11-22, mean of 5 mice.
[7] abbreviates: local cream 150 mg per application on days 8, 11, 13, 15, 18, 20, mean of 5 animals.
Setting [8] is: BDF1 mice, 5 days after the last treatment, mean of 7 animals.
Where [9] appears, read: BDF1 mice, day 11 = start of treatment, once daily for seven consecutive days, mean of 7 animals.
[10] abbreviates: BDF1 mice, treated once daily from day 11 for seven days, mean of 7 animals.
Where [11] appears, read: BDF1 mice, treated once daily from day 11 for seven days, treatments terminated on day 18, mean of 7 animals.
[12] abbreviates: BDF1 mice, treatments terminated on day 18, mean of 7 animals.

Take `CC[N+](C)(CC)CCOCc1ccc2sc3ccccc3c(=O)c2c1.[I-]` [CCDTHT, N,N-diethyl-N-methyl-2-[(9-oxo-9H-thioxanthen-2-yl)methoxy]-ethanaminium iodide]: in data set [1] (setting [6]), the “Tumor volumes; Day 14 after tumor transplantation” value is given as 1.20 cm^3, the “Tumor volumes; Day 16 after tumor transplantation” value is on record as 1.40 cm^3, the “Tumor volumes; Day 18 after tumor transplantation” value stood at 1.90 cm^3 and the “Tumor volumes; Day 23 after tumor transplantation” value was 3.00 cm^3. Also, the “Tumor volumes; Day 11 after tumor transplantation” value in data set [2] (CCDTHT 4.6 mg/kg once daily day 11-22, day 11 = start, mean of 5 mice) came out at 0.83 cm^3. The “Tumor volumes; Day 21 after tumor transplantation” value in data set [2] (CCDTHT 4.6 mg/kg once daily day 11-22, mean of 5 mice) was determined as 2.60 cm^3.
Consider “AT: human α1-antitrypsin, essentially pure, purified from commercial PALP preparation”, for which the “Tumor volumes; Day 8 after tumor transplantation” value in data set [1] amounted to 0.42 cm^3. Also, in data set [1] (setting [7]), the “Tumor volumes; Day 11 after tumor transplantation” value came out at 0.83 cm^3, the “Tumor volumes; Day 13 after tumor transplantation” value is listed as 1.60 cm^3, the “Tumor volumes; Day 15 after tumor transplantation” value is 2.55 cm^3 and the “Tumor volumes; Day 18 after tumor transplantation” value was found to be 3.48 cm^3. Moreover, the “Tumor volumes; Day 20 after tumor transplantation” value in data set [1] (setting [7]) is 4.80 cm^3.
Consider “TF: human transferrin, partially iron-saturated, Sigma-Aldrich T 3309”, for which, in data set [1] (setting [8]), the “Tumor volumes; Day 23 after tumor transplantation” value was 3.88 cm^3. In addition, in data set [1] (setting [9]), the “Tumor volumes; Day 11 after tumor transplantation” value is reported as 0.71 cm^3. For the same molecule, in data set [1] (setting [10]), the “Tumor volumes; Day 14 after tumor transplantation” value amounted to 1.00 cm^3 and the “Tumor volumes; Day 16 after tumor transplantation” value is 1.13 cm^3. In addition, in data set [1] (setting [11]), the “Tumor volumes; Day 18 after tumor transplantation” value came to 2.00 cm^3. Moreover, in data set [1] (setting [12]), the “Tumor volumes; Day 21 after tumor transplantation” value is listed as 3.12 cm^3. Moreover, the “Tumor volumes; Day 8 after tumor transplantation” value in data set [1] stood at 0.34 cm^3. Also, in data set [1] (setting [7]), the “Tumor volumes; Day 11 after tumor transplantation” value is 0.79 cm^3, the “Tumor volumes; Day 13 after tumor transplantation” value is listed as 1.38 cm^3, the “Tumor volumes; Day 15 after tumor transplantation” value was found to be 2.19 cm^3 and the “Tumor volumes; Day 18 after tumor transplantation” value was found to be 3.07 cm^3. Also, in data set [1] (setting [7]), the “Tumor volumes; Day 20 after tumor transplantation” value is recorded as 3.83 cm^3. Besides, the “Number of lung colonies per lung*” value in data set [3] is given as “doubling”. For the same molecule, in data set [3] (listed as TF, local applications), the “Number of lung colonies per lung*” value is 17 (10-21). Also, the “Number of lung colonies per lung*” value in data set [3] (listed as TF, subcutaneous applications) was 38 (29-44). Also, in data set [4], the “Stimulatory effects on fibroblast proliferation in vitro after pre-heating” value is listed as “not altered”.

B1: Purified PALP: human placental alkaline phosphatase purified to homogeneity from commercial Sigma-Aldrich PALP; it is 'PALP' in Table 2, b31 and b104 (protein, UniProt P05187 23-506, looked up)
Alkaline phosphatase, …: IIPVEEENPDFWNREAAEALGAAKKLQPAQTAAKNLIIFLGDGMGVSTVTAARILKGQKKDKLGPEIPLAMDRFPYVALSKTYNVDKHVPDSGATATAYLCGVKGNFQTIGLSAAARFNQCNTTRGNEVISVMNRAKKAGKSVGVVTTTRVQHASPAGTYAHTVNRNWYSDADVPASARQEGCQDIATQLISNMDIDVILGGGRKYMFRMGTPDPEYPDDYSQGGTRLDGKNLVQEWLAKRQGARYVWNRTELMQASLDPSVTHLMGLFEPGDMKYEIHRDSTLDPSLMEMTEAALRLLSRNPRGFFLFVEGGRIDHGHHESRAYRALTETIMFDDAIERAGQLTSEEDTLSLVTADHSHVFSFGGYPLRGSSIFGLAPGKARDRKAYTVLLYGNGPGYVLKDGARPDVTESESGSPEYRQQSAVPLDEETHAGEDVAVFARGPQAHLVHGVQEQTFIAHVMAFAACLEPYTACDLAPPAGTTD
On to B1, for which the “Tumor volumes; Day 23 after tumor transplantation” value in data set [1] (setting [8]) came to 3.63 cm^3. Besides, the “Tumor volumes; Day 11 after tumor transplantation” value in data set [1] (setting [9]) came out at 0.75 cm^3. Also, in data set [1] (setting [10]), the “Tumor volumes; Day 14 after tumor transplantation” value is 1.16 cm^3 and the “Tumor volumes; Day 16 after tumor transplantation” value is reported as 1.55 cm^3. Also, the “Tumor volumes; Day 18 after tumor transplantation” value in data set [1] (setting [11]) turned out to be 2.13 cm^3. For the same molecule, the “Tumor volumes; Day 21 after tumor transplantation” value in data set [1] (setting [12]) came out at 3.47 cm^3. The “Number of lung colonies per lung*” value in data set [3] is reported as 16 (9-18). Also, the “Pathological effects (cell death or immune cell infiltration) in liver, lung, heart, blood, kidney, muscle, brain, spleen, intestine” value in data set [5] is reported as “has not caused any significant pathological effects”.

The record behind these values is patent US7718170B2, “Alkaline phosphatase compositions to reduce skin cancer” (Essential Skincare, LLC, priority 2006, dated 2010).
